The results in this text go back to patent US20130089724A1, “NOVEL ORGANIC UV ABSORBERS” (COMMISSARIAT A L'ENERGIE ATOMIQUE ET AUX ENERGIES …, priority 2010, published 2013).

Holding throughout (format): physicochemical
A short description of series [1]: accelerated aging test (Suntest CPS) of silica sol-gel deposited layer, 620 W/m^2, 24 h. The following applies: 0.5 mg/ml solution, xenon arc 620 W/m^2, cut-off 310 nm. How it is done:
A silica sol-gel solution is formed by the hydrolysis of a silicon alkoxide (tetraethoxysilane, CAS No. 78-10-4) in the presence of ethanol and hydrochloric acid.
A 0.5 mg/ml aqueous pyrene-1-carboxylic solution is formed with a molar equivalent of sodium hydroxide.
One volume of the pyrene-1-carboxylic solution is mixed with an equivalent volume of the sol-gel solution: the mixture is deposited by “knife coating” on a microscope slide transparent to UV-A radiation.
After drying in ambient air, this slide is subjected to an accelerated aging test in a Suntest CPS chamber from Atlas.
The aging conditions are as follows: irradiance at 620 W/m^2, xenon arc lamp equipped with a “sheet glass” filter which cuts off the UV radiation below 310 nm, exposure time 24 h.
FIG. 1 reports the UV transmission spectra of the silica sol-gel deposited layer in which the pyrene-1-carboxylic is incorporated, before/after exposure.
The “light” stability of the pyrene-1-carboxylic compound is thus confirmed.

Series [2] is described as follows: accelerated aging test of colored textile behind sol-gel filter layer (NF EN ISO 105-B2). On the procedure: A sol-gel deposited layer is produced on a glass slide under the same conditions as example 1 above, with a starting 5 mg/ml solution of pyrene-1-carboxylic.
This sample is used as filter affixed to a colored textile.
A glass slide not treated with this deposited layer is also affixed to another sample of the same colored textile for the purposes of reference sample.
The two samples are exposed to an accelerated aging test in a Suntest CPS chamber from Atlas. The aging conditions are as follows and in accordance with the standard NF EN ISO 105-B2: irradiance at 550 W/m^2, xenon arc lamp equipped with a “sheet glass” filter which cuts off the UV radiation below 310 nm, exposure time 72 h.

Series [3] in a line: comparative accelerated aging test of pyrene derivatives in silica sol-gel layer. The following applies: 0.5 mg/ml, 620 W/m^2, 24 h, black body 55° C, versus pyrenesulfonic, pyreneboronic, pyreneacetic. How it is done: A silica sol-gel solution as defined in example 1 is prepared.
At the same time, four aqueous solutions respectively comprising pyrenecarboxylic, pyrenesulfonic, pyreneboronic and pyreneacetic, at 0.5 mg/ml, with one molar equivalent of sodium hydroxide, are prepared.
A volume of each aqueous solution thus obtained is mixed with an equivalent volume of the sol-gel solution: each mixture obtained is subsequently deposited by “knife coating” on a microscope slide transparent to UV-A radiation.
After drying in ambient air, these slides are subjected to an accelerated aging test in a Suntest CPS chamber from Atlas.
The aging conditions are as follows: irradiance at 620 W/m^2, xenon arc lamp equipped with a “sheet glass” filter which cuts off the UV radiation below 310 nm, exposure time 24 h. The temperature for regulating the black body is 55° C.
FIG. 3 reports the absorption spectra of the different pyrene derivatives described above as a function of time.

The nature of series [4]: stability toward solar irradiation (general statement). The following applies: compared with conventional UV stabilizers / substituted benzotriazoles.
Series [5] is described as follows: accelerated aging test of polyurethane varnish deposited layer, 550 W/m^2, 72 h. The note with it: 50 mg per g polyurethane solution. How it is done: A curing agent is added to a solution of polyurethane (70% by weight) in a xylene/toluene mixture.
A molecule of nonfunctionalized pyrene (CAS No. 129000) is added in a proportion of 50 mg of pyrene per gram of polyurethane solution.
The mixture is deposited by “knife coating” on a glass slide transparent to UV-A radiation.
After drying in ambient air, this slide is subjected to an accelerated aging test in a Suntest CPS chamber from Atlas. The aging conditions are as follows: irradiance at 550 W/m^2, xenon arc lamp equipped with a “sheet glass” filter which cuts off the UV radiation below 310 nm, exposure time 72 h.
The pyrene not in accordance with the invention is obviously not stable to light.

With `O=C(O)c1ccc2ccc3cccc4ccc1c2c34` [pyrene-1-carboxylic, pyrene-1-carboxylic acid], in series [1], the “UV/visible transmission properties of the coating before/after exposure” value is listed as “retained”. Further, in series [2] (5 mg/ml solution, xenon arc 550 W/m^2, 72 h), the “color change of the sol-gel deposited layer after exposure” value is “has not changed in color”. The “degradation grade on the scale of the blues of the protected colored textile” value in series [2] (scale of 8 levels, 1 most degraded, 8 least degraded, 550 W/m^2, 72 h, untreated reference grade 1) was 4-5. The “stability over time of absorption peak under UV” value in series [3] is on record as “best stability over time”. Also, the “stability toward solar irradiation / radiation” value in series [4] was “equivalent to that of substituted benzotriazoles”.
For `c1cc2ccc3cccc4ccc(c1)c2c34` [pyrene], the “UV/vis transmission properties of the coating before/after exposure” value in series [5] is recorded as “very significantly degraded”.
